{
  "source": "patent US9862690B2",
  "about": "“Treatment of pulmonary and other conditions” (University of Pittsburgh—of the Commonwealth System of …, priority 2013, dated 2018)",
  "key": {"BEAS-2B cells": {"test_system": "BEAS-2B cells", "assay_type": "cell-based", "protocol": "To evaluate cell viability, apoptosis, and cytotoxicity, the Apo Tox-Glo Triplex assay was used according to the manufacturer's instructions (Promega, Madison, Wis.). Briefly, the BEAS-2B cells were plated at 2×10^4 cells/well in 100 μl medium in an opaque walled, clear-bottomed, 96-well plate. After 24 hr culture, they were treated for a further indicated time with different concentrations of PB141 or PB157. At the end of the culture period, 20 μl viability/cytotoxicity reagent was added to each well, mixed by orbital shaking (300 r.p.m. for 30 s) and incubated for 30 min at 37° C. Fluorescence was then measured with excitation at 400 nm and emission at 505 nm to assess cell viability, and 485 nm excitation and 520 nm emission to assess cytotoxicity; both were quantified as relative fluorescence units (RFU). Then, 100 μl Caspase-Glo 3/7 reagent was added to each well, mixed by orbital shaking (300 r.p.m. for 30 s) and incubated for 30 min at room temperature. Luminescence was measured to assess caspase activation as a marker of apoptosis and quantified as relative luminescence units. Results for PB141 and PB157 were similar."}, "[1]": {"assay": "FRAP assay (ferric reduction/anti-oxidant power)", "assay_type": "biochemical", "conditions": "10 μmol compound, 5 min, 593 nm; Troxol reference", "protocol": "The antioxidant activity of PB141 was determined by ferric reduction/anti-oxidant power (FRAP) assay in which the compound is reacted with ferric tripyridyltriazine complex. Data are representative of one of two independent experiments; n=3; *** P<0.001 versus Troxol.\nThe antioxidant activity of PB141 or PB157 was determined by ferric reduction/anti-oxidant power (FRAP) assay in which the compounds are reacted with ferric tripyridyltriazine complex. The ferric complex was prepared at room temperature by reaction of ferric chloride (16.7 mmol) and 2,4,6-trispyridyl-s-triazine (8.33 mmol) in pH 3.6 acetate buffer (0.25 M). The FRAP reagent was used immediately after preparation. PB141 or PB157 (10 μmol) was added to the FRAP reagent (1 ml) and mixed by vortexing. The reaction was allowed to stabilize for 5 min and the absorbance was measured. The antioxidant activities of these compounds were determined by the ability to reduce the ferric complex to a […] ferrous complex, monitored at 593 nm. Troxol (10 μmol) was used as reference standard."}, "[2]": {"assay": "TRAP assay (quenching of ABTS+ radical cation)", "assay_type": "biochemical", "conditions": "10 μmol compound, 5 min, absorbance 734 nm; Troxol reference", "protocol": "The anti-oxidant activities of PB 141 were determined by the ability of this compound to react with pre-formed radical monocation of 2,2′-azinobis-(3-ethylbenzothiazoline)-6-sulfonic acid (ABTS^+). Data are representative of one of two independent experiments; n=3; *** P<0.001 versus Troxol.\nThe anti-oxidant activity of PB141 or PB157 was determined by the ability of these compounds to react with the pre-formed radical monocation of 2,2′-azinobis-(3-ethylbenzothiazoline)-6-sulfonic acid (ABTS^+). ABTS (1.8 mmol) was reacted overnight with potassium persulfate (0.63 mmol) in double distilled water, at room temperature in the dark, to generate the dark blue ABTS^+ radical cation. This radical cation has a maximum absorption at 734 nm. Immediately prior to the experiment, ABTS^+ was diluted with absolute ethanol to an absorbance of approximately 0.7 at 734 nm. PB141 or PB157 (10 μmol) was added to ABTS^+ (1 ml) and mixed by vortexing. The reaction was allowed to stabilize for 5 min and the absorbance was measured. The anti-oxidant activities of these compounds were determined by their ability to quench the color of the radical cation. Troxol (10 μmol) was used as reference standard."}},
  "data": [
    {"smiles": "CC(=O)N[C@@H](CSC(c1cnccn1)C1CCCC(C(SC[C@H](NC(C)=O)C(=O)O)c2cnccn2)C1=O)C(=O)O", "note": "(stereo partly shown) [PB157]", "values": [
      {"measurement": "Cytotoxicity", "setting": "BEAS-2B cells", "result": "without exhibiting cytotoxicity"},
      {"measurement": "Apoptosis (caspase 3/7 activation)", "setting": "BEAS-2B cells; different concentrations, data not shown", "result": "induced apoptosis"},
      {"measurement": "Antioxidant activity (reduction of ferric complex)", "setting": "[1]", "result": "highly significant and approximately equal"},
      {"measurement": "Anti-oxidant activity (ability to quench ABTS+ radical cation)", "setting": "[2]", "result": "clearly demonstrated"}
    ]}
  ]
}
